{"source": "patent US20230322781A1", "about": "(Northwestern University, priority 2020, published 2023)", "key": {"[1]": {"assay": "Water solubility (qualitative statements)", "type": "physicochemical", "settings": "H2O"}, "[2]": {"settings": "literature value (ref 34); cited from earlier work"}, "[3]": {"assay": "1H NMR of equimolar mixture with CB[8]", "type": "binding", "settings": "D2O, 298 K", "description": "The peaks in the spectrum were assigned on the basis of in-depth analyses of their 2D ^1H-^1H COSY and ROESY spectra. The chemical shifts of H-7, residing on the central phenylene groups, as well as H-5 and H-6, attached to the C═C double bonds, show (FIG. 2d) large upfield shifts (Δδ=−0.64, −0.43 and −1.12 for H-5, H-6, and H-7, respectively). While the protons on CB[8] display (FIG. 7) small upfield shifts (Δδ=−0.09, −0.11 and −0.13 for H-a, H-b, and H-c, respectively). […] Taken together, it can be concluded that, although OPVEBox^4+ and CBPQT^4+ have the same p-xylylene linkers, only OPVEBox^4+ can form ring-in-ring(s) complexes with CB[8] in aqueous solutions. […]\nAll solvents and reagents were obtained commercially and used without further purification unless noted otherwise. […] UV-Vis Absorption spectra were recorded in a conventional rectangular quartz cell (10×10×45 mm) on a UV-3600 Shimadzu spectrophotometer. Fluorescence spectra were measured in a rectangular quartz cell (10×10×45 mm) on a HORIBA FluoroMax-4 spectrometer, which was equipped with an integrating sphere for absolute fluorescence quantum yields determination and time-correlated single-photon counting (TCSPC) module for emission decays. […] Electrospray ionization-mass spectra (ESI-MS) were measured on Waters Synapt G2 mass spectrometer. […]"}, "[4]": {"assay": "Isothermal titration calorimetry (ITC) with CB[8]", "type": "binding", "settings": "1000 μM in syringe into CB[8] 50 μM; aqueous NaCl (1 mM), 298 K", "method": "All microcalorimetric titrations were performed in a thermostated TA Nano Isothermal Titration calorimeter at atmospheric pressure and 298 K. The samples were dissolved in an aqueous NaCl (1.0 mM) solution, in order to improve the solubility of CB[8], and the concentrations of sample were calibrated by UV-Vis absorption spectroscopy after filtered by a 0.45-filter. A solution of one reactant in a syringe was sequentially injected with stirring at 150 rpm into a solution of the other reactant in the sample cell with a constant volume of 185 μL. A representative titration curve is shown in FIG. 24, each titration of reactant into the sample cell gave an apparent reaction heat caused by the formation of the inclusion complex. The reaction heat decreases gradually until a balance was reached, whereupon only the dilution heat was measured. The net reaction heat was obtained by subtracting the dilution heat from the apparent reaction heat. The resulting data were analyzed with NanoAnalyze software using a 1:1 binding model to give the complex stability constant (Ka), standard molar reaction enthalpy (ΔH), and standard deviations. Generally, the first point of the titration curve was disregarded, as there is some liquid mixing near the tip of the injection needle before ITC run. […]\nThe value for K1 can be determined to be 5.8×10^7 M^−1 by analysis of the UV-Vis titration data. […]"}}, "note": "“Also recorded” adds a separate entry of the source. Where a name gives a salt, the structure may show the parent alone.", "data": [{"smiles": "O=C1N2CN3C(=O)N4CN5C(=O)N6CN7C(=O)N8CN9C(=O)N%10CN%11C(=O)N%12CN%13C(=O)N%14CN%15C(=O)N%16CN1C1C2N2CN%17C(=O)N(CN%18C(=O)N(CN%19C(=O)N(CN%20C(=O)N(CN%21C(=O)N(CN%22C(=O)N(CN%23C(=O)N(CN1C2=O)C%16C%15%23)C%14C%13%22)C%12C%11%21)C%10C9%20)C8C7%19)C6C5%18)C4C3%17", "note": "(stereo not shown) [CB[8], cucurbit[8]uril]", "values": [{"measurement": "water solubility", "setting": "[1]", "value": "poor water solubility; also recorded: low solubility"}]}, {"smiles": "CC12CC3CC(C)(C1)CC(N)(C3)C2", "note": "[memantine hydrochloride]", "values": [{"measurement": "binding affinity Ka for CB[8]", "setting": "[2]", "value": "8.3e+12", "unit": "M⁻¹"}]}, {"smiles": "c1cc2ccc1C[n+]1ccc(cc1)-c1cc[n+](cc1)Cc1ccc(cc1)C[n+]1ccc(cc1)-c1cc[n+](cc1)C2", "note": "[CBPQT^4+, cyclobis(paraquat-p-phenylene)]", "values": [{"measurement": "binding with CB[8] by 1H NMR", "setting": "[3]", "value": "may bind very weakly to the p-xylylene linkers"}, {"measurement": "enthalpy change upon addition into CB[8]", "setting": "[4]", "value": "no obvious enthalpy change"}]}]}
